Converted amounts (≈) assume the structure as drawn. *1 amine or outer side, *2 acyl side, *3 side chain or, on linkers, in order; H or OH if unused. Where a SMILES comes first, the peptide text is derived from it. Bridges are numbered along the chain shown (N, C = ends). [ ]: non-standard residue; d: D form. The star is where a group is joined. X6 = CCCCOC(/C=C/C(=O)[*:3])(CO)[C@@H](C)Oc1ccc([C@H](N[*:1])C(=O)[*:2])cc1; X3 = C[C@@H](Oc1ccc([C@H](N[*:1])C(=O)[*:2])cc1)[C@](O)(/C=C/C(=O)[*:3])CO; Pentanoyl(2R-Me,3R-OH,4-Me) = CC(C)[C@@H](O)[C@@H](C)C(=O)*; d(aIle) = CC[C@H](C)[C@@H](N)C(=O)O; d(aThr) = C[C@@H](O)[C@@H](N)C(=O)O; NMeF = CN[C@@H](Cc1ccccc1)C(=O)O
How the values were obtained:
Escherichia coli RNAP = Escherichia coli RNAP (Escherichia coli, UniProt P0A8T7+P0A8V2); assay: Fluorescence-detected RNAP assay, Escherichia coli RNAP; type: biochemical; settings: fluorescent-detected RNAP assays
Escherichia coli RNAP, sequence (P0A800 whole entry, the tested form may be a part): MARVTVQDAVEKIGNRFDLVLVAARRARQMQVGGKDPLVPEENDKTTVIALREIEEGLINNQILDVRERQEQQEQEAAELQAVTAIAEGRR
Escherichia coli RNAP, sequence (P00579 whole entry, further chain, the tested form may be a part): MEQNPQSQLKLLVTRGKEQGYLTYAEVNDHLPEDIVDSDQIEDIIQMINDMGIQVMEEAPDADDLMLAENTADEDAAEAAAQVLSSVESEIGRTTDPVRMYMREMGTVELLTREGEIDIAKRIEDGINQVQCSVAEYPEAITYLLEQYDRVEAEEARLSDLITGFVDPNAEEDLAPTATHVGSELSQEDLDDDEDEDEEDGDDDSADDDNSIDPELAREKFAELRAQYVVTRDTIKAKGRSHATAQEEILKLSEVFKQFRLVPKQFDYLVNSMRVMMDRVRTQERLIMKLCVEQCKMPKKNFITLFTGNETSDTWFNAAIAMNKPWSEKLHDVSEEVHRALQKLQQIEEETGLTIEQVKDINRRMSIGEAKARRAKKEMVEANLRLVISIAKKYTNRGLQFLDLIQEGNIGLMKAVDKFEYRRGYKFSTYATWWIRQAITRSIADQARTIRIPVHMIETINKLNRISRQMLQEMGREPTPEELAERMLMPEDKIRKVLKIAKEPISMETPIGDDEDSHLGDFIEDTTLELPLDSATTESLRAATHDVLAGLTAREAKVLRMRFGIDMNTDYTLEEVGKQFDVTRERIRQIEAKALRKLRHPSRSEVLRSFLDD
Escherichia coli RNAP, sequence (P0A8V2 whole entry, the tested form may be a part): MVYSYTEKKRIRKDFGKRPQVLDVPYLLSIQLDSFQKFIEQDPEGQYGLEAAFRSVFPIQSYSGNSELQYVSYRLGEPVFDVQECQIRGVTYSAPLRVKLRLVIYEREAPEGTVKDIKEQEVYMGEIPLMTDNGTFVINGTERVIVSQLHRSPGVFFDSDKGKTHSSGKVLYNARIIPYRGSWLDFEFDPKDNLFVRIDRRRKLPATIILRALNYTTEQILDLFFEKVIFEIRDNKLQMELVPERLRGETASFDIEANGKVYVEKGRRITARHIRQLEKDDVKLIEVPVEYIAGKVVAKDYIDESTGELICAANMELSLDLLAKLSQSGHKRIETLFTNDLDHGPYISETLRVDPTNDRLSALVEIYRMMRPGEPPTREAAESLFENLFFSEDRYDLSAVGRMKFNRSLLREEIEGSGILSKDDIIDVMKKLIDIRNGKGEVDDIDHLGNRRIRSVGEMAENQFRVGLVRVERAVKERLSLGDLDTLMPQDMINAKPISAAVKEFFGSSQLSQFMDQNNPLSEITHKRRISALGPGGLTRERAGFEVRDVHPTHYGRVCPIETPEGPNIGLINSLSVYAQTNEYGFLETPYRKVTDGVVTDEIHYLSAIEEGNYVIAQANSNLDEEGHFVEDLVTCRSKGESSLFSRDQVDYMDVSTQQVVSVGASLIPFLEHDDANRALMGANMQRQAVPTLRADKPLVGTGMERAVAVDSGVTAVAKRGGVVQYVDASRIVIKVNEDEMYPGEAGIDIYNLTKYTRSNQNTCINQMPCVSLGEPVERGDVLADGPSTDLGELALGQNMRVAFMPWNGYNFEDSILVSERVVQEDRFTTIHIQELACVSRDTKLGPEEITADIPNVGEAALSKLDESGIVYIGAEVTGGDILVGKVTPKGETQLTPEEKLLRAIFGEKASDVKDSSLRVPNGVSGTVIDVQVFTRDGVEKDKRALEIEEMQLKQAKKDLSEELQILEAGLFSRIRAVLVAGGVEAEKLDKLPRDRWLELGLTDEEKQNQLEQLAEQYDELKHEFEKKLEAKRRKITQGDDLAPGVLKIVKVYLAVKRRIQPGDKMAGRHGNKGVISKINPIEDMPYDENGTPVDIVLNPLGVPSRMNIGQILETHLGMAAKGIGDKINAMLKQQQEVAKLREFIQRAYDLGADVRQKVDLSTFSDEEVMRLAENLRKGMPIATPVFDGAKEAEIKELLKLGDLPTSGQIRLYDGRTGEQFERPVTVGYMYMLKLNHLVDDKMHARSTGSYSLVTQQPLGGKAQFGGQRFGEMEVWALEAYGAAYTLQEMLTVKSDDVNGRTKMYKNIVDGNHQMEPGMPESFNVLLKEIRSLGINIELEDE
Escherichia coli RNAP, sequence (P0A8T7 whole entry, the tested form may be a part): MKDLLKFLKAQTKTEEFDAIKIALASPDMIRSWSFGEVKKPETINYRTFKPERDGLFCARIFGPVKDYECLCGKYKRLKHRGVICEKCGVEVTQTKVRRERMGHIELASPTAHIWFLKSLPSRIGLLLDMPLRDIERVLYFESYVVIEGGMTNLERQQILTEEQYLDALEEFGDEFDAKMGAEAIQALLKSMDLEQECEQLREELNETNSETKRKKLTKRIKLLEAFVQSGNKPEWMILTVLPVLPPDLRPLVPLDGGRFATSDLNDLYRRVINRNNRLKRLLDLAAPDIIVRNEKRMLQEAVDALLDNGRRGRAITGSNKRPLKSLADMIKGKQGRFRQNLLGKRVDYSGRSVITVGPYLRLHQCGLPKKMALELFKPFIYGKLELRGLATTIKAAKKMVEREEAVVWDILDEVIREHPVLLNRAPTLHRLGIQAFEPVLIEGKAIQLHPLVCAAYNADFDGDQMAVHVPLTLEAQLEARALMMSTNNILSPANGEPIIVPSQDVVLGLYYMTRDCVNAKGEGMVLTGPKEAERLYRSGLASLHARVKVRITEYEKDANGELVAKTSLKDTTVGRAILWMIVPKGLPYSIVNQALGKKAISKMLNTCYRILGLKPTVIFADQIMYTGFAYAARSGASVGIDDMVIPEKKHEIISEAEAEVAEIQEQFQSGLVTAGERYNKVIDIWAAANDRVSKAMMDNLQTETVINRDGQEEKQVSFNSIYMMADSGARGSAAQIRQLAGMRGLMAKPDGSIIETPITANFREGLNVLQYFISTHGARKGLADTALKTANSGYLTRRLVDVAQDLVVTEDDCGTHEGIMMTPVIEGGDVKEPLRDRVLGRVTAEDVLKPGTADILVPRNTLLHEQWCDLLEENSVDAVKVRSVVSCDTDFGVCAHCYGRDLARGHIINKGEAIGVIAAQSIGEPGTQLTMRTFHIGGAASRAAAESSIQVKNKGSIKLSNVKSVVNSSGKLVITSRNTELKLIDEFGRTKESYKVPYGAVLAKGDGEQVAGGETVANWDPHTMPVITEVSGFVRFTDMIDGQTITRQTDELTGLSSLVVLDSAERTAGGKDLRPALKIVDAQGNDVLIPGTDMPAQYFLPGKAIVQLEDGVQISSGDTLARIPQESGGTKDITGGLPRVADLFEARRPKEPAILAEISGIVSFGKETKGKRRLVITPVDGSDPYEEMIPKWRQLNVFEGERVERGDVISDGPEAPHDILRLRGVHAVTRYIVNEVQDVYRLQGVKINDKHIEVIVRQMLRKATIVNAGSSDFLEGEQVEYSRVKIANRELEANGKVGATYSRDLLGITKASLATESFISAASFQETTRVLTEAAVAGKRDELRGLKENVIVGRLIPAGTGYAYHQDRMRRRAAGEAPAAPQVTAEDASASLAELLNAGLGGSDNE
Escherichia coli RNAP, sequence (P0A7Z4 whole entry, further chain, the tested form may be a part): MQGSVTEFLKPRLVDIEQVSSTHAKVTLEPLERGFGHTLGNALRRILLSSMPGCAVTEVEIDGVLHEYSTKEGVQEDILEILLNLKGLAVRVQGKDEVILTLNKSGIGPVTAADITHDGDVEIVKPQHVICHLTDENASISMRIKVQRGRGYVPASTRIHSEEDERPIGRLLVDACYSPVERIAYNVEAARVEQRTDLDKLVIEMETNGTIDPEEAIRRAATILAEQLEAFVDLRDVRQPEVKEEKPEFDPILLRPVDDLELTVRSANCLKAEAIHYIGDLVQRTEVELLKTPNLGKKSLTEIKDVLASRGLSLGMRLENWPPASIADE
Procedure: Fluorescence-detected RNAP assays with Escherichia coli RNAP were performed by a modification of the procedure of Kuhlman et al., 2004 [Kuhlman et al., Anal. Biochem. 324:183-190, 2004]. Reaction mixtures contained (20 μl): […] test compound, 75 nM Escherichia coli RNAP […] holoenzyme, 20 nM 384 by DNA fragment containing the bacteriophage T4 N25 promoter, 100 μM ATP, 100 μM GTP, 100 μM UTP, 100 μM CTP, 50 mM Tris-HCl, pH 8.0, 100 mM KCl, 10 mM MgCl2, 1 mM DTT, 10 μg/ml bovine serum albumin, and 5.5% glycerol. Reaction components other than DNA and NTPs were pre-incubated for 10 min at 37° C. Reactions were carried out by addition of DNA and incubation for 5 min at 37° C., followed by addition of NTPs and incubation for 60 min at 37° C. DNA was removed by addition of 1 μl 5 mM CaCl2 and 2 U DNaseI (Ambion, Inc.), followed by incubation for 90 min at 37° C. RNA was quantified by addition of 100 μl RiboGreen RNA Quantitation Reagent (Invitrogen, Inc.; 1:500 dilution in Tris-HCl, pH 8.0, 1 mM EDTA), followed by incubation for 10 min at 25° C., followed by measurement of fluorescence intensity [excitation wavelength=485 nm and emission wavelength=535 nm; QuantaMaster QM1 spectrofluorometer (PTI, Inc.)].
(§1) Half-maximal inhibitory concentrations (IC50s) were calculated by non-linear regression in SigmaPlot (SPSS, Inc.).

[1] = tested on: Escherichia coli D21f2toIC; assay: Antibacterial activity, broth microdilution, Escherichia coli D21f2tolC; type: cell-based
Text: (§2) Antibacterial activity was quantified using broth microdilution [Clinical and Laboratory Standards Institute (CLSUNCCLS), Methods for Dilution Antimicrobial Susceptibility Tests for Bacteria That Grow Aerobically; Approved Standard, Eighth Edition. CLIS Document M07-A8 (CLIS, Wayne Pa.), 2009]. Assays with Enterobacter cloacae ATCC 13047, Pseudomonas aeruginosa ATCC10145, and Escherichia coli D21f2to1C, employed a starting cell density of 2-5×10^5 cfu/ml, Mueller Hinton II cation adjusted broth (BD Biosciences, Inc.), and an air atmosphere. Assays with Haemophilus influenzae ATCC49247 and Neisseria gonorrhoeae ATCC 19424 employed a starting cell density of 2-5×10^5 cfu/ml, Haemophilus Test Medium broth (Barry et al., 1993) and a 5% CO2/95% air atmosphere. MIC50 was defined as the minimal concentration resulting in ≧50% inhibition of bacterial growth.

[2] = tested on: Enterobacter cloacae ATCC 13047; assay: Antibacterial activity, broth microdilution, Enterobacter cloacae; type: cell-based
Text: as §2

Sal-resistant mutants = assay: Cross-resistance of Sal-resistant mutants to other RNAP inhibitors; type: cell-based; settings: disclosed herein
[3] = tested on: Gram-positive bacterial pathogens; settings: in words, reported previously (Trischman 1994; Moore 1999); cited from earlier work
human RNAP I/II/III = assay: Radiochemical assay with human RNAP I, II and III (HeLaScribe nuclear extract); type: biochemical
Procedure: Radiochemical assays with human RNAP I, II, and III were performed essentially as described [Sawadogo and Roeder, Cell 43:165-75, 1985]. Reaction mixtures contained (20 μl): 0-100 μM test compound, 8 U HeLaScribe Nuclear Extract (Promega, Inc.), 1 μg human placental DNA (Sigma-Aldrich), 400 μM ATP, 400 μM [α^32P]UTP (0.11 Bq/fmol), 400 μM CTP, 400 μM GTP, 50 mM Tris-HCl, pH 8.0, 7 mM HEPES-NaOH, 70 mM (NH4)2SO4, 50 mM KCl, 12 mM MgCl2, 5 mM DTT, 0.1 mM EDTA, 0.08 mM phenylmethylsulfonyl fluoride, and 16% glycerol. Reaction components other than DNA and NTPs were pre-incubated 10 min at 30° C., DNA was added and reaction mixtures were incubated 15 min at 30° C., NTPs were added and reaction mixtures were incubated 60 min at 30° C. Reaction mixtures were spotted on DE81 filter discs (Whatman, Inc.; pre-wetted with water) and incubated 1 min at room temperature. Filters were washed with 3×3 ml Na2HPO4, 2×3 ml water, and 3 ml ethanol, using a filter manifold (Hoefer, Inc.). Filters were placed in scintillation vials containing 10 ml Scintiverse BD Cocktail (Thermo Fisher, Inc.), and radioactivity was quantified by scintillation counting (LS6500; Beckman-Coulter, Inc.).
as §1

Pseudomonas aeruginosa = assay: Antibacterial activity, broth microdilution, Pseudomonas aeruginosa; type: cell-based; settings: in words, Gram-negative bacterial pathogen
Text: as §2

[4] = tested on: Gram-positive and Gram-negative bacterial RNAP; assay: Inhibition of bacterial RNAP in vitro (radiochemical RNAP assays); type: biochemical; settings: in words, disclosed herein
Procedure: Radiochemical RNAP assays with Escherichia coli RNAP and Staphylococcus aureus RNAP were performed as follows: Reaction mixtures contained (10 μl): 0-100 μM test compound, bacterial RNAP holoenzyme [75 nM Escherichia coli RNAP holoenzyme (prepared as in Mukhopadhyay et al., Meths. Enzymol. 371:144-159, 2003) or 75 nM Staphylococcus aureus RNAP core enzyme and 300 nM Staphylococcus aureus σ^A (prepared as in Srivastava et al., Curr. Opin. Microbiol. 14:532-543, 2011)], 20 nM DNA fragment N25-lacUV5-14 [positions −100 to −1 of the bacteriophage T5 N25 promoter followed by positions +1 to +29 of the lacUV5(+10A; +15C) promoter; prepared by PCR amplification of a synthetic nontemplate-strand oligodeoxyribonucleotide], 0.5 mM ApA, 100 μM [α^32P]UTP (0.2 Bq/fmol), 100 μM ATP, and 100 μM GTP in TB (50 mM Tris-HCl, pH 7.9, 100 mM KCl, 10 mM MgCl2, 1 mM DTT, 100 μg/ml bovine serum albumin, and 5% glycerol). […] Products were applied to 7 M urea 15% polyacrylamide (19:1 acrylamide:bisacrylamide) slab gels (Bio-Rad), electrophoresed in TBE (90 mM Tris-borate, pH 8.0, and 2 mM EDTA), and analyzed by storage-phosphor scanning (Typhoon; GE Healthcare, Inc.).
as §1

Neisseria gonorrhoeae = assay: Antibacterial activity, broth microdilution, Neisseria gonorrhoeae; type: cell-based; settings: in words, Gram-negative bacterial pathogen
Text: as §2

Haemophilus influenzae = assay: Antibacterial activity, broth microdilution, Haemophilus influenzae; type: cell-based; settings: in words, Gram-negative bacterial pathogen
Text: as §2

Vero E6 ATCC CRL1586 = assay: Cytotoxicity to mammalian cells in culture (CellTiter96); type: cell-based
Text: MICs for mammalian cells (Vero E6) in culture were quantified using CellTiter96 assay (Promega. Inc.; procedures as specified by the manufacturer). Screening data for SalA and SalB (compounds 1 and 2) and representative compounds of this invention (compounds 3-9) are presented in Tables 1-2: […]

[5] = minimal concentration resulting in ≧50% inhibition of bacterial growth

CCCCOC1(CO)/C=C/C(=O)NCC(=O)OC[C@@H]2NC(=O)[C@@H]([C@@H](C)O)NC(=O)[C@H](Cc3ccccc3)N(C)C(=O)[C@@H](NC(=O)[C@@H]([C@@H](C)CC)NC(=O)[C@@H](NC(=O)[C@H](C)[C@H](O)C(C)C)[C@@H](C)OC2=O)c2ccc(cc2)O[C@@H]1C (stereo partly drawn) [Sal-OBu B (5B)] ({Pentanoyl(2R-Me,3R-OH,4-Me)}-T[d(aIle)][X6][NMeF][d(aThr)]S; ester 1-C; linker 3-6 via G)
IC50 (Escherichia coli RNAP): > 25000 nM

CC[C@H](C)[C@H]1NC(=O)[C@@H](NC(=O)[C@H](C)[C@H](O)C(C)C)[C@@H](C)OC(=O)[C@@H]2COC(=O)CNC(=O)/C=C/[C@](O)(CO)[C@@H](C)Oc3ccc(cc3)[C@H](NC1=O)C(=O)N(C)[C@@H](Cc1ccccc1)C(=O)N[C@H]([C@@H](C)O)C(=O)N2 [Sal-OH (4)] ({Pentanoyl(2R-Me,3R-OH,4-Me)}-T[d(aIle)][X3][NMeF][d(aThr)]S; ester 1-C; linker 3-6 via G)
MIC50 ([1]; Escherichia coli, D21F2TOIC, read-out: MIC50 Escherichia coli D21f2toIC): 0.78 µg/mL (≈ 0.751 µM)
IC50 (Escherichia coli RNAP): 2000 nM
MIC50 ([2]; Enterobacter cloacae, ATCC13047, minimal concentration resulting in ≧50% inhibition of bacterial growth): 25 µg/mL (≈ 24.1 µM)

CNC(=O)[C@@H](C)[C@H]1C(=O)/C(=C(O)/C=C/C(C)=C/[C@@H](C)[C@H]2O[C@@]3(C)O[C@H](C=C[C@@]34CO4)[C@@H]2C)C(=O)N1[C@@H]1CC[C@H](O)[C@H](C)O1 [streptolydigin]
cross-resistance of Sal-resistant mutants to the compound (Sal-resistant mutants): do not exhibit cross-resistance

lipiarmycin
cross-resistance of Sal-resistant mutants to the compound (Sal-resistant mutants): do not exhibit cross-resistance

myxopyronin
cross-resistance of Sal-resistant mutants to the compound (Sal-resistant mutants): do not exhibit cross-resistance

salinamide B [SalB (2)]
antibacterial activity against Gram-positive bacterial pathogens [3]: exhibit antibacterial activity
IC50 (human RNAP I/II/III): > 100000 nM
inhibition of human RNAP I, II, and III (human RNAP I/II/III; in words): do not detectably inhibit
antibacterial activity against Pseudomonas aeruginosa (Pseudomonas aeruginosa): exhibit antibacterial activity
inhibition of Gram-positive and Gram-negative bacterial RNAP in vitro [4]: inhibits
MIC50 Escherichia coli D21f2toIC [1, 5]: 0.098 µg/mL
IC50 (Escherichia coli RNAP): 1000 nM
antibacterial activity against Neisseria gonorrhoeae (Neisseria gonorrhoeae): exhibit antibacterial activity
antibacterial activity against Haemophilus influenzae (Haemophilus influenzae): exhibit antibacterial activity
antibacterial activity against Enterobacter cloacae ([2]; in words, Gram-negative bacterial pathogen): exhibit antibacterial activity
MIC50 Enterobacter cloacae ATCC 13047 [2, 5]: 6.25 µg/mL
inhibition of growth of mammalian cells in culture (Vero E6 ATCC CRL1586; in words): do not detectably inhibit growth
MIC50 Vero E6 ATCC CRL1586 (Vero E6 ATCC CRL1586; mammalian cells in culture): >100 µg/mL
